Reference: US4279887A, “Amides useful as brain imaging agents” (Medi-Physics, Inc., priority 1978, dated 1981)
Where two headings read alike, the source gives them in different places.

Assays:
[1] = Bioassay of I-123-labeled compounds: organ distribution of activity 5 minutes after tail vein injection; format: in vivo, Female Sprague-Dawley rats; conditions: rat; for Ratio Brain/Blood / Ratio Heart/Blood / Percent Dose in Stomach: 5 min
Method: Bioassays were performed utilizing compounds from the foregoing examples labeled with I-123 in accordance with the method described in Example 18. Female Sprague-Dawley rats weighing approximately 150 g were anesthetized with sodium pentobarbital and were injected in a tail vein with from 0.05 to 1.0 mCi (in a volume of 0.2 to 0.5 ml) of the I-123-labeled compound. Two specimens were utilized for each test.
The animals were sacrificed at 5 minutes post injection, the tails discarded and the amount of activity in various organs determined. Each organ was counted at a standardized geometry with a thallium iodide-activated sodium iodide crystal scintillation counter adjusted for the 159 keV emission of I-123. The organs were also weighed to one thousandth of a gram and the activity calculated as a percent of administered dose per gram organ weight.
The ratio of brain-to-blood activity was calculated as a percent of administered dose per gram. The important determinations are the amount of activity in the brain and the brain/blood ratio. The amount of activity in the stomach is related to loss of the I-123-label. For comparative purposes, I-123 antipyrine was utilized as a standard.

[2] = I-123 labeled, cited from earlier work
[3] = i.v., ratio of percent dose per gram
[4] = i.v., stomach activity is related to loss of the I-123 label
[5] = in vivo, iv, Percent Dose/g. at 5 min., Blood
[6] = in vivo, iv, Percent Dose/g. at 5 min., Brain
[7] = in vivo, iv, Percent Dose/g. at 5 min., Heart

Row | SMILES | Ratio Brain/Blood [1, 3] | Ratio Heart/Blood [1, 3] | Percent Dose in Stomach [1, 4] [Percent Dose] | tissue uptake at 5 min ([1]; in vivo, iv, i.v. tail vein, 5 min post injection, blood, I-123 label, read-out: Percent Dose/g. at 5 min., Blood) [%ID/g] | tissue uptake at 5 min ([1]; in vivo, iv, i.v. tail vein, 5 min post injection, brain, I-123 label, read-out: Percent Dose/g. at 5 min., Brain) [%ID/g] | tissue uptake at 5 min ([1]; in vivo, iv, i.v. tail vein, 5 min post injection, heart, I-123 label, read-out: Percent Dose/g. at 5 min., Heart) [%ID/g] | Percent Dose in Stomach ([1]; in vivo, iv) [Percent Dose] | Ratio Brain/Blood ([1]; in vivo, iv) | Ratio Heart/Blood ([1]; in vivo, iv) | tissue uptake at 5 min [1, 5] [%ID/g] | tissue uptake at 5 min [1, 6] [%ID/g] | tissue uptake at 5 min [1, 7] [%ID/g] | concentration in the brain ([2]; literature) | in vivo deiodination ([2]; literature) | loss of the iodine label in the brain ([2]; prior art agent)
1 | O=C(Nc1ccccc1)c1ccccc1[123I] [Example 6, o-iodobenzanilide] | 0.90 | 2.34 | 1.66 | 0.93 | 0.84 | 2.18 |  |  |  |  |  |  |  |  | 
2 | Cc1cccc(C)c1NC(=O)c1ccccc1[123I] [Example 7, o-iodobenz-2,6-xylidide] |  |  |  |  |  |  | 0.82 | 0.87 | 1.43 | 0.69 | 0.6 | 0.99 |  |  | 
3 | CN(C)C(=O)c1ccccc1[123I] [Example 10, N, N-dimethyl-o-iodobenzamide] |  |  |  |  |  |  | 0.93 | 0.22 | 0.72 | 2.15 | 0.48 | 1.54 |  |  | 
4 | CNC(=O)c1ccccc1[123I] [Example 1, N-methyl-o-iodobenzamide] |  |  |  |  |  |  | 0.94 | 1.21 | 1.28 | 0.86 | 1.04 | 1.1 |  |  | 
5 | CCCCCCCCCCCCCCCCCCNC(=O)c1ccccc1[123I] [Example 5, N-octadecyl-o-iodobenzamide] |  |  |  |  |  |  | 0.20 | 0.10 | 0.92 | 0.91 | 0.09 | 0.84 |  |  | 
6 | O=C(NO)c1ccccc1[123I] [Example 14, o-iodobenzohydramic acid] |  |  |  |  |  |  | 0.96 | 0.57 | 0.99 | 0.95 | 0.54 | 0.94 |  |  | 
7 | O=C(NNc1ccccc1)c1ccccc1[123I] [Example 13, o-iodobenzphenylhydrazide] |  |  |  |  |  |  | 1.10 | 0.20 | 0.55 | 1.99 | 0.39 | 1.09 |  |  | 
8 | NC(=O)c1ccccc1[123I] [Example 2, o-iodobenzamide] |  |  |  |  |  |  | 0.93 | 1.28 | 1.32 | 0.69 | 0.88 | 0.91 |  |  | 
9 | O=C(NCc1ccccc1)c1ccccc1[123I] [Example 8, N-benzyl-o-iodobenzamide] |  |  |  |  |  |  | 0.88 | 1.00 | 2.26 | 0.68 | 0.68 | 1.54 |  |  | 
10 | NC(=O)CNC(=O)c1ccccc1[123I] [Example 12, o-iodohippuramide] |  |  |  |  |  |  | 0.83 | 1.10 | 1.31 | 0.84 | 0.92 | 0.96 |  |  | 
11 | Cc1c([123I])c(=O)n(-c2ccccc2)n1C [I^123 -iodoantipyrine, 4-iodoantipyrine] |  |  | 2.32 |  |  |  |  |  |  |  |  |  | suboptimal concentration in the brain | rapid in vivo deiodination | significant loss of the iodine label in the brain
12 | CCCCCCNC(=O)c1ccccc1[123I] [Example 3, N-hexyl-o-iodobenzamide] |  |  |  |  |  |  | 0.86 | 1.05 | 1.21 | 0.56 | 0.59 | 1.04 |  |  | 
13 | O=C(NCCc1ccccc1)c1ccccc1[123I] [Example 9, N-phenethyl-o-iodobenzamide] |  |  |  |  |  |  | 0.82 | 1.28 | 1.70 | 0.43 | 0.54 | 0.73 |  |  | 
